The structures appear in SMILES notation. pKi: −log10 of the molar value.

The target in experiment [1] is T1, Alpha-2C adrenergic receptor (Homo sapiens, UniProt P18825).
T1 sequence (P18825 whole entry): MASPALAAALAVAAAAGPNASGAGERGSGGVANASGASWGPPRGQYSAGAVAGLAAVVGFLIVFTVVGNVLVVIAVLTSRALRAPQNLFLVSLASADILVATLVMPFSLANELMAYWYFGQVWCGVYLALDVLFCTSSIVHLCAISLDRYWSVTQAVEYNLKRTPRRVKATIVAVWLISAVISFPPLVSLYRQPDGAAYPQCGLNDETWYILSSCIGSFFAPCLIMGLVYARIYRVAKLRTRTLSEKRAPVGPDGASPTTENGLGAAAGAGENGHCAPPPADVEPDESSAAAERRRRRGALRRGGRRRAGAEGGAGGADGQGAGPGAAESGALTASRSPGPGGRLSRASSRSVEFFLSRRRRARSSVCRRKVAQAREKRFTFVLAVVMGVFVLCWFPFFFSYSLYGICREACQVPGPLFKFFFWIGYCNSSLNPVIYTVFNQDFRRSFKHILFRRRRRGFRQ
As to the kind of experiment: In vitro binding affinity measured by displacement of [3H]rauwolscine from alpha-2c adrenergic receptor expressed in CHO cells in presence of phentolamine. In kind it is cell-based. For orientation: In a radioligand displacement assay an active substance lowers the binding of a labelled ligand.

In experiment [2] the target is T2, Alpha-2B adrenergic receptor (Homo sapiens, UniProt P18089).
T2 sequence (P18089 whole entry): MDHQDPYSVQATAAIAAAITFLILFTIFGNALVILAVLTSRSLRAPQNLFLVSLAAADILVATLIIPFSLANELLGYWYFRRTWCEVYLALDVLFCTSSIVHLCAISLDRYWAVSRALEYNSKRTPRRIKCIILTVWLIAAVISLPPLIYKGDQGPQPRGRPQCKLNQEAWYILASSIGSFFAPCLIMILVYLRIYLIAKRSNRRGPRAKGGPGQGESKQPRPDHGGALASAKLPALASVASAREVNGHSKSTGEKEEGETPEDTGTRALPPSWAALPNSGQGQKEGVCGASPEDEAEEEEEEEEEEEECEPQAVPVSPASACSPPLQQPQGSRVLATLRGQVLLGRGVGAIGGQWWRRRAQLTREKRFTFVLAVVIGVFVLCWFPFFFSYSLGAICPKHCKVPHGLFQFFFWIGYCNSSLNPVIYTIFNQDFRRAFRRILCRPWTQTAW
As to the kind of experiment: In vitro binding affinity towards alpha-2b adrenergic receptor.

Experiment [3] has as its target T3, Alpha-2A adrenergic receptor (Homo sapiens, UniProt P08913).
T3 sequence (P08913 whole entry): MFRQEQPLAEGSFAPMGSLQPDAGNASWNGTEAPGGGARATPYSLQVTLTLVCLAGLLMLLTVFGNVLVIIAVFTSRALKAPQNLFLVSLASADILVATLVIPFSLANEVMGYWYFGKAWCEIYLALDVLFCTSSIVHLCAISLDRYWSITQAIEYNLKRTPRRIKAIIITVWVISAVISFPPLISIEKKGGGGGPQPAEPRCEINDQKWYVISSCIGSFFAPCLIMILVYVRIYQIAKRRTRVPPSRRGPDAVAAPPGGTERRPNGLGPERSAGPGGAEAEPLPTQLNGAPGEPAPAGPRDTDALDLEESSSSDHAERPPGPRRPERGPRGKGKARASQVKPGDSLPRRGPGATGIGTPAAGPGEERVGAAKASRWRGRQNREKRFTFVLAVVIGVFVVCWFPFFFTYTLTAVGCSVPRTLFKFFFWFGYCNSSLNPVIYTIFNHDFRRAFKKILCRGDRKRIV
As to the kind of experiment: In vitro binding affinity towards alpha-2a adrenergic receptor.

Usually pKi stands for −log10 of the Ki, conventionally taken in molar units. Regarding `O=C(NCCCNC(=O)[C@@H]1C2C[C@H]3c4[nH]c5ccccc5c4CCN3C[C@@H]2CC[C@@H]1O)OCc1ccccc1` (stereo partly specified), the pKi in experiment [1] is 8.96.

`O=C(CCCNC(=O)[C@@H]1C2C[C@H]3c4[nH]c5ccccc5c4CCN3C[C@@H]2CC[C@@H]1O)OCc1ccccc1` (stereo partly specified): the pKi in experiment [2] is 5.89; in experiment [1], 9.19; in experiment [3], 7.54.

As to `O=C(NCCCNC(=O)[C@@H]1C2C[C@H]3c4[nH]c5ccccc5c4CCN3C[C@@H]2CC[C@@H]1O)[C@H]1[C@@H]2C[C@@H]3c4[nH]c5ccccc5c4CCN3C[C@H]2CC[C@H]1O` (stereo partly specified), the negative-log Ki (pKi) in experiment [1] is 8.07.

With `COC(=O)CNC(=O)[C@@H]1C2C[C@H]3c4[nH]c5ccccc5c4CCN3C[C@@H]2CC[C@@H]1O` (stereo partly specified), the pKi in experiment [1] is 8.10.

In the case of `O=C(O)[C@@H]1C2C[C@H]3c4[nH]c5ccccc5c4CCN3C[C@@H]2CC[C@@H]1O` (stereo partly specified), the pKi in experiment [1] was 7.72.

For the compound `CC(C)(C)OC(=O)NCCCNC(=O)[C@@H]1C2C[C@H]3c4[nH]c5ccccc5c4CCN3C[C@@H]2CC[C@@H]1O` (stereo partly specified), the negative logarithm of the Ki (pKi) in experiment [1] was 8.55.

For `NCCCNC(=O)[C@@H]1C2C[C@H]3c4[nH]c5ccccc5c4CCN3C[C@@H]2CC[C@@H]1O` (stereo partly specified), the pKi in experiment [1] was 7.49.

For the compound `O=C(O)CCCNC(=O)[C@@H]1C2C[C@H]3c4[nH]c5ccccc5c4CCN3C[C@@H]2CC[C@@H]1O` (stereo partly specified), in experiment [1], the negative-log Ki (pKi) was 8.52.

With `COC(=O)CNC(=O)CNC(=O)[C@@H]1C2C[C@H]3c4[nH]c5ccccc5c4CCN3C[C@@H]2CC[C@@H]1O` (stereo partly specified), the pKi in experiment [1] is 8.28.

The values are drawn from ChEMBL document CHEMBL1145270 (Bioorg Med Chem Lett, 2005).
